Measurements reported in patent US5990113A, “Monohydrates of aminobenzenesulfonic acid derivatives and method for preparing thereof” (priority 1995, dated 1999).
“Also recorded” adds a separate entry of the source. Like-named read-outs stand apart in the source and are kept apart here.

Experiments:
[1] = Hygroscopic property: weight change on storage in a desiccator; assay type: physicochemical; settings: 20° C.
Method: Each of the samples of the monohydrate of the present invention was put in a desiccator adjusted at a relative humidity of 57% or 98%, and then stored at 20° C. for 16 days. Weight changes during the period of time were measured. As controls, the anhydrous crystals obtained in the above process (a) in Example 1 were also stored in a desiccator adjusted at a relative humidity of 57% or 98%, and weight changes were measured. The results are shown in Table 2 [in the table, each of the values (%) represents a weight increase]. […] On the other hand, as for the anhydrous crystal, the weight increase of about 7% was observed, which corresponded to about 1 mole of the water of crystal.

[2] = Thermal analysis (TG-DTA); assay type: physicochemical; settings: dry nitrogen, 5° C./min
Method: The anhydrous crystal described in Example 1 of the Japanese Patent Unexamined Publication (KOKAI) No.(Hei)3-7263/1991 and the monohydrate of the present invention were subjected to thermal analysis by a thermal analyzer (RIGAKU TAS-200) under dry nitrogen atmosphere using each of 10 mg of samples. The measurements were carried out in the temperature range of from 50 to 400° C. applying the temperature raising rate of 5° C./min. As the anhydrous crystals, those obtained in the above process (a) was used.

[3] = rat, in vivo
Method: Using these values of AUC(0-.infin.) and the doses applied, the bioavailability was calculated according to the following Equation 1. [formula]

cardiac muscle cells = settings: cited from earlier work
[4] = rat, in vivo; remark: listed apart in the source
[5] = Stability and release of water of crystal of the monohydrate; assay type: physicochemical; settings: for stability (in words): long period / room temperature / once formed, monohydrate
[6] = Weight and appearance on further drying; assay type: physicochemical; settings: further 27 hours, 50° C., 90 mmHg
Method: The anhydrous crystal of 5-Methyl-2-(1-piperazinyl) benzenesulfonic acid (10.00 g) and distilled water (30 ml) were added in a 100 ml round-bottomed flask and the mixture was stirred at 5° C. for 2 hours. The crystals were collected from the suspension by suction filtration and the crystals remained in the round-bottomed flask were recovered by washing with distilled water (3 ml). The crystals were combined and dried at 50° C. and 90 mmHg for 3 hours to give 5-methyl-2-(1-piperazinyl)benzenesulfonic acid monohydrate as white crystals (10.36 g, yield: 96.8%). After drying was further continued for 27 hours under the same conditions, the weight and appearance of the monohydrate were not changed. Water content measured by a Karl Fischer water content meter was 6.96%, which further verified that the product was the monohydrate (calculated content: 6.56%).
The anhydrous crystal of 5-Methyl-2-(1-piperazinyl) benzenesulfonic acid (10.00 g) and distilled water (75 ml) were charged in a 200 ml round-bottomed flask and the crystals were thoroughly dissolved by heating under reflux with stirring. The solution was then cooled to 5° C. with stirring and stirring was further continued for 2 hours at the same temperature. […] Water content measured by a Karl Fischer water content meter was 6.75%, which further verified that the product was the monohydrate. […]

[7] = Serum concentration (2): serum radioactivity after oral administration at several doses; settings: male rats, Mean ± S.D (n = 5)

SMILES: Cc1ccc(N2CCNCC2)c(S(=O)(=O)O)c1 [Anhydrous crystal, 2-(1-piperazinyl)-5-methylbenzenesulfonic acid, reference compound]
- weight increase, 0 day ([1]; 57% RH): 0.00%
- weight increase, 1 day ([1]; 57% RH): 6.99%
- weight increase, 3 days ([1]; 57% RH): 7.08%
- weight increase, 16 days ([1]; 57% RH): 6.89%
- weight increase ([1]; 57% and 98% RH, 16 days, about 1 mole of water of crystal): about 7%
- weight increase, 0 day ([1]; 98% RH): 0.00%
- weight increase, 1 day ([1]; 98% RH): 7.35%
- weight increase, 3 days ([1]; 98% RH): 7.36%
- weight increase, 16 days ([1]; 98% RH): 7.12%
- weight loss or thermal absorption peak due to release of the water of crystal (in words) ([2]; below 100° C.): no weight loss or no thermal absorption peak
- bioavailability, maximum value of fluctuation ([3]; po, 0.94 mg/kg): 43.72%
- bioavailability, minimum value of fluctuation ([3]; po, 0.94 mg/kg): 33.03%

SMILES: Cc1ccc(N2CCNCC2)c(S(=O)(=O)O)c1 [Compound 2, 2-(1-piperazinyl)-5-methylbenzenesulfonic acid]
- inhibition of the inflow of calcium ions into cardiac muscle cells (in words) (cardiac muscle cells): remarkably inhibits

SMILES: Cc1ccc(N2CCNCC2)c(S(=O)(=O)O)c1.O [Monohydrate, 5-methyl-2-(1-piperazinyl)benzenesulfonic acid monohydrate]
- weight increase, 0 day ([1]; 57% RH): 0.00%
- weight increase, 1 day ([1]; 57% RH): 0.11%
- weight increase, 3 days ([1]; 57% RH): 0.20%
- weight increase, 16 days ([1]; 57% RH): 0.21%
- weight change (in words) ([1]; 57% and 98% RH, 16 days): No substantial weight change
- weight increase, 0 day ([1]; 98% RH): 0.00%
- weight increase, 1 day ([1]; 98% RH): 0.28%
- weight increase, 3 days ([1]; 98% RH): 0.40%
- weight increase, 16 days ([1]; 98% RH): 0.39%
- temperature from which weight loss and thermal absorption peak due to release of the water of crystal were observed [2]: around 60 °C
- weight loss due to release of the water of crystal ([2]; 50 to 400° C.): 6.57%
- bioavailability ([3]; po, 1 mg/kg): 38%
- serum concentration versus dose (in words) [4]: linear direct proportion to the dose of administration
- heating temperature at which water of crystal is gradually released ([5]; ambient or reduced pressure): ≥ 60 °C
- stability (in words) ([5]; listed as monohydrate of 2-(1-piperazinyl)-5-methylbenzenesulfonic acid): stable at room temperature for a long period of time
- stability (in words) [5]: stable and free from weight variation by hygroscopicity; also recorded: stable for a long period of time
- weight and appearance after further drying [6]: not changed

SMILES: Cc1ccc(N2CCNCC2)c(S(=O)(=O)O)c1 [labeled compound, labeled 2-(1-piperazinyl)-5-methylbenzenesulfonic acid monohydrate]
- AUC(0-.infin.) ([3]; iv, 0.3 mg/kg): 816.28 ng eq·h/ml
- AUC(0-.infin.) ([3]; po, 1 mg/kg): 1039.86 ng eq·h/ml
- AUC ([7]; oral 0.1 mg/kg): 0.0641 ± 0.0123 µg·h/mL
- C max ([7]; oral 0.1 mg/kg): 0.0162 ± 0.0026 µg/mL
- T max ([7]; oral 0.1 mg/kg): 2.2 ± 0.5 h
- t 1/2 ([7]; oral 0.1 mg/kg): 1.77 ± 0.34 h
- AUC ([7]; oral 0.3 mg/kg): 0.2705 ± 0.0884 µg·h/mL
- C max ([7]; oral 0.3 mg/kg): 0.069 ± 0.0178 µg/mL
- T max ([7]; oral 0.3 mg/kg): 2.2 ± 0.5 h
- t 1/2 ([7]; oral 0.3 mg/kg): 1.33 ± 0.09 h
- AUC ([7]; oral 1 mg/kg): 0.5744 ± 0.1132 µg·h/mL
- C max ([7]; oral 1 mg/kg): 0.1716 ± 0.0311 µg/mL
- T max ([7]; oral 1 mg/kg): 1.8 ± 0.5 h
- t 1/2 ([7]; oral 1 mg/kg): 1.64 ± 0.17 h
- AUC ([7]; oral 3 mg/kg): 1.7692 ± 0.4984 µg·h/mL
- C max ([7]; oral 3 mg/kg): 0.5015 ± 0.1338 µg/mL
- T max ([7]; oral 3 mg/kg): 2.0 ± 0.0 h
- t 1/2 ([7]; oral 3 mg/kg): 1.30 ± 0.08 h
